# Source: publication PMC7979524 (Pharmacological research, 2021)
# Tests used:
# adenosine A2B receptor = target: T1, adenosine A2B receptor (Homo sapiens, UniProt P29275); assay type: cell-based
# T1 sequence (P29275 1-332): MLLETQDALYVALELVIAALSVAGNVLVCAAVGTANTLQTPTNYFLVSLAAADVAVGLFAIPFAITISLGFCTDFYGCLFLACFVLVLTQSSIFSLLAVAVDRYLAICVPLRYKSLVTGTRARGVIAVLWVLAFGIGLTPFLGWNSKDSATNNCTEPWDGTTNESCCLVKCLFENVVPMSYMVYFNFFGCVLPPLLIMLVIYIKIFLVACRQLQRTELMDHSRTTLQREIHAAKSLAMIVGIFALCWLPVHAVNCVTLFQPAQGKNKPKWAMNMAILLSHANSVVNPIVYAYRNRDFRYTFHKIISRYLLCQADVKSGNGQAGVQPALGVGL
# adenosine A2A receptor = adenosine A2A receptor (Homo sapiens, UniProt P29274); assay type: cell-based
# Chain of adenosine A2A receptor (P29274 whole entry): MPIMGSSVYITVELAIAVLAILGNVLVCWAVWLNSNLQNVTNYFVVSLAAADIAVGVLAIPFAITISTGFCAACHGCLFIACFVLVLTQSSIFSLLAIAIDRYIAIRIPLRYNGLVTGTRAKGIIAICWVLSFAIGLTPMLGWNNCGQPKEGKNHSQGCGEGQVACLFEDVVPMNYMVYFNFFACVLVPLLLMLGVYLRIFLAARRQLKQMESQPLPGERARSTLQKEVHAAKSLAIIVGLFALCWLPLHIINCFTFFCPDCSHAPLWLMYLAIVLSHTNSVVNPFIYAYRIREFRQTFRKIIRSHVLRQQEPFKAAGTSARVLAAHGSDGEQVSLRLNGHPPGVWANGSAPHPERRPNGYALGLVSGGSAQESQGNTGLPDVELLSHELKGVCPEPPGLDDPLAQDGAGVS
structure (smiles),measurement,setting,value
"COc1cc(/C=C\C(=O)CC(=O)/C=C/c2ccc(O)c(OC)c2)ccc1O [CTCUR, cis-trans curcumin]",Ki,adenosine A2B receptor,6.7 µM
same,Ki,adenosine A2A receptor,5.1 µM
